From PubChem BioAssay AID1963981 (Molecular Pharmacology Branch, DTP, NCI, 2024)

Test system: 354836-022-R-J1-PDC multicell spheroid viability
Test: Anticancer human tumor 354836-022-R-J1-PDC patient-derived head and neck squamous cell carcinoma cell line growth inhibition [PI3K]
Conditions: for viability, T/C: stronger effect = lower value
Source text: Combinatorial screen of targeted agents with the PI3K inhibitors inavolisib, alpelisib, duvelisib, and copanlisib in multi-cell type tumor spheroids
A high-throughput screen of multi-cell type tumor spheroids was designed to identify active combinations of targeted small molecules and PI3K pathway inhibitors. Complex spheroids include a stromal component modeled by human endothelial cells (HUVEC) and fibroblasts modeled by human mesenchymal stem cells (MSCs). The concentration ranges selected for each drug and investigational agent were based upon clinically achievable concentrations if the clinical Cmax of the agent was known.
Compounds. The drugs and investigational agents: inavolisib (NSC800729), alpelisib (NSC765974), duvelisib (NSC772469), copanlisib (NSC816437), ipatasertib (NSC767898), afuresertib (NSC778305), talazoparib (NSC767125), sapanisertib (NSC764658), selumetinib (NSC741078), tovorafenib (DAY101, NSC766906), vemurafenib (NSC761431), ravoxertinib (NSC781343), sotorasib (NSC818433), MRTX1133 (NSC 836407), abemaciclib (NSC 768073), palbociclib (NSC758247), venetoclax (NSC 766270), SY5609 (NSC837396), enzalutamide (NSC755605), and darolutamide (NSC825331), were obtained from the National Cancer Institute (NCI) Developmental Therapeutics Program Chemical Repository. The FDA-approved anticancer drug set is available from the NCI Developmental Therapeutics Program. […] The stock solutions were prepared in dimethyl sulfoxide (DMSO, Sigma-Aldrich, St. Louis, MO, cat. D2650) at 800-fold the tested concentration and stored at -70 degrees C prior to their use. All drugs and investigational agents were tested over a range starting from a high concentration at or near the clinical Cmax and decreasing in half-log increments. If the clinical Cmax for an agent had not been determined, the highest concentration tested was 10 microM.
Cell Culture. All cells were maintained in an incubator at 37 degrees C and 5% CO2 with 95% humidity. The PDC lines were cultured according to standard operating procedures established by the NCI PDMR (https://pdmr.cancer.gov/sops/default.htm). All PDCs were thawed and cultured in Matrigel-coated flasks prepared with a working solution of 1X Ham's F-12 nutrient mix, without supplementation (Invitrogen, Waltham, MA, cat. 11765054), 100 U/mL penicillin-streptomycin (Invitrogen, cat. 15140122), and 2.5% Matrigel (Corning Inc., Corning, NY, cat. 354248) for the first three passages. The 354836-022-R-J1-PDC, 475296-252-R-J1-PDC, and 997726-040-R-J2-PDC lines were cultured in 6A media, which includes advanced DMEM/F-12 (Thermo Fisher Scientific, cat. 12634028), 10 mM HEPES (Thermo Fisher Scientific, cat. 15630080), 1X GlutaMAX supplement (Thermo Fisher Scientific, cat. 35050061), 0.1 mg/mL primocin (InvivoGen, San Diego, CA, cat. ant-pm-2), 10% defined fetal bovine serum, heat inactivated (HyClone Laboratories Inc., Logan, UT, cat. SH30070.03HI), 50% L-WRN conditioned media (ATCC, cat. CRL-3276), 1.25 mM N-Acetyl-L-cysteine (Sigma-Aldrich, cat. A9165), 10 mM nicotinamide (Sigma-Aldrich, cat. N0636), 1X B-27 supplement (Thermo Fisher Scientific, cat. 17504044), 1X N-2 supplement (Thermo Fisher Scientific, cat. 17502048), and 10 microM Y-27632 dihydrochloride (Tocris Bioscience, Bristol, United Kingdom, cat. 1254). The 624824-186-R-J2-PDC line was cultured in 6C/Colon 1B media, which includes all 6A media components plus 50 ng/mL human EGF recombinant protein (Thermo Fisher Scientific, cat. PHG0311). […]

[1] = curve of first compound, second compound 0.00316 µM
[2] = curve of first compound, second compound 0.01 µM
[3] = curve of first compound, second compound 0.0316 µM
[4] = curve of first compound, second compound 0.1 µM
[5] = curve of first compound, second compound 0.316 µM
[6] = curve of first compound, second compound 1 µM
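Note: spheroids exposed to agents for seven days before the viability read.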

SMILES: C#Cc1c(F)ccc2cc(O)cc(-c3ncc4c(N5CC6CCC(C5)N6)nc(OCC56CCCN5CC(F)C6)nc4c3F)c12 (stereo unspecified)
- viability, T/C (compound 0.0316 µM): 101% [middle of 4 runs]
- viability, T/C (compound 0.1 µM): 101% [middle of 4 runs]
- viability, T/C (compound 1 µM): 87.7% [middle of 4 runs]
- viability, T/C (compound 3.16 µM): 95.4% [middle of 4 runs]
- viability, T/C (compound 10 µM): 90.5% [middle of 4 runs]
- IC50 (curve of compound): > 10 µM

SMILES: CCCS(=O)(=O)Nc1ccc(F)c(C(=O)c2c[nH]c3ncc(-c4ccc(Cl)cc4)cc23)c1F
- viability, T/C (compound 0.1 µM): 109% [middle of 4 runs]
- viability, T/C (compound 0.316 µM): 104% [middle of 4 runs]
- viability, T/C (compound 1 µM): 91.5% [middle of 4 runs]
- viability, T/C (compound 3.16 µM): 86% [middle of 4 runs]
- viability, T/C (compound 10 µM): 24.8% [middle of 4 runs]
- IC50 (curve of compound): 6.06 µM [middle of 4 runs]

SMILES: CNC(=O)c1ccc(N2C(=S)N(c3ccc(C#N)c(C(F)(F)F)c3)C(=O)C2(C)C)cc1F + CC(Nc1ccc2c(c1)OCCn1cc(N3C(=O)OCC3C(F)F)nc1-2)C(N)=O
- IC50 [1]: > 10 µM
- IC50 [2]: > 10 µM
- IC50 [3]: > 10 µM
- IC50 [4]: > 10 µM
- IC50 [5]: > 10 µM
- IC50 [6]: > 10 µM
- viability, T/C (second compound 0.00316 µM, first compound 0.0316 µM): 92.3%
- viability, T/C (second compound 0.00316 µM, first compound 0.1 µM): 99%
- viability, T/C (second compound 0.00316 µM, first compound 0.316 µM): 104%
- viability, T/C (second compound 0.00316 µM, first compound 1 µM): 82.8%
- viability, T/C (second compound 0.00316 µM, first compound 3.16 µM): 97.8%
- viability, T/C (second compound 0.00316 µM, first compound 10 µM): 84.7%
- viability, T/C (second compound 0.01 µM, first compound 0.0316 µM): 120%
- viability, T/C (second compound 0.01 µM, first compound 0.1 µM): 88%
- viability, T/C (second compound 0.01 µM, first compound 0.316 µM): 94.3%
- viability, T/C (second compound 0.01 µM, first compound 1 µM): 101%
- viability, T/C (second compound 0.01 µM, first compound 3.16 µM): 93.5%
- viability, T/C (second compound 0.01 µM, first compound 10 µM): 84.6%
- viability, T/C (second compound 0.0316 µM, first compound 0.0316 µM): 92%
- viability, T/C (second compound 0.0316 µM, first compound 0.1 µM): 96.7%
- viability, T/C (second compound 0.0316 µM, first compound 0.316 µM): 83.1%
- viability, T/C (second compound 0.0316 µM, first compound 1 µM): 89.4%
- viability, T/C (second compound 0.0316 µM, first compound 3.16 µM): 87.9%
- viability, T/C (second compound 0.0316 µM, first compound 10 µM): 88.2%
- viability, T/C (second compound 0.1 µM, first compound 0.0316 µM): 90.8%
- viability, T/C (second compound 0.1 µM, first compound 0.1 µM): 95.2%
- viability, T/C (second compound 0.1 µM, first compound 0.316 µM): 94.2%
- viability, T/C (second compound 0.1 µM, first compound 1 µM): 91%
- viability, T/C (second compound 0.1 µM, first compound 3.16 µM): 88.7%
- viability, T/C (second compound 0.1 µM, first compound 10 µM): 85.7%
- viability, T/C (second compound 0.316 µM, first compound 0.0316 µM): 62.9%
- viability, T/C (second compound 0.316 µM, first compound 0.1 µM): 79.9%
- viability, T/C (second compound 0.316 µM, first compound 0.316 µM): 74.1%
- viability, T/C (second compound 0.316 µM, first compound 1 µM): 67.6%
- viability, T/C (second compound 0.316 µM, first compound 3.16 µM): 77.6%
- viability, T/C (second compound 0.316 µM, first compound 10 µM): 67.9%
- viability, T/C (second compound 1 µM, first compound 0.0316 µM): 63.5%
- viability, T/C (second compound 1 µM, first compound 0.1 µM): 57.7%
- viability, T/C (second compound 1 µM, first compound 0.316 µM): 64.3%
- viability, T/C (second compound 1 µM, first compound 1 µM): 58.4%
- viability, T/C (second compound 1 µM, first compound 3.16 µM): 54.3%
- viability, T/C (second compound 1 µM, first compound 10 µM): 53.4%

SMILES: Cn1cnc2c(F)c(Nc3ccc(Br)cc3Cl)c(C(=O)NOCCO)cc21 + CC(Nc1ccc2c(c1)OCCn1cc(N3C(=O)OCC3C(F)F)nc1-2)C(N)=O
- IC50 [1]: > 3 µM
- IC50 [2]: > 3 µM
- IC50 [3]: > 3 µM
- IC50 [4]: > 3 µM
- IC50 [5]: 2.27 µM
- IC50 [6]: 0.252 µM
- viability, T/C (second compound 0.00316 µM, first compound 0.00949 µM): 98%
- viability, T/C (second compound 0.00316 µM, first compound 0.03 µM): 75.2%
- viability, T/C (second compound 0.00316 µM, first compound 0.0949 µM): 92.6%
- viability, T/C (second compound 0.00316 µM, first compound 0.3 µM): 78%
- viability, T/C (second compound 0.00316 µM, first compound 0.949 µM): 79.2%
- viability, T/C (second compound 0.00316 µM, first compound 3 µM): 54.9%
- viability, T/C (second compound 0.01 µM, first compound 0.00949 µM): 93.2%
- viability, T/C (second compound 0.01 µM, first compound 0.03 µM): 78.7%
- viability, T/C (second compound 0.01 µM, first compound 0.0949 µM): 87%
- viability, T/C (second compound 0.01 µM, first compound 0.3 µM): 78.7%
- viability, T/C (second compound 0.01 µM, first compound 0.949 µM): 75.6%
- viability, T/C (second compound 0.01 µM, first compound 3 µM): 56%
- viability, T/C (second compound 0.0316 µM, first compound 0.00949 µM): 90%
- viability, T/C (second compound 0.0316 µM, first compound 0.03 µM): 97.1%
- viability, T/C (second compound 0.0316 µM, first compound 0.0949 µM): 96%
- viability, T/C (second compound 0.0316 µM, first compound 0.3 µM): 83.5%
- viability, T/C (second compound 0.0316 µM, first compound 0.949 µM): 83.7%
- viability, T/C (second compound 0.0316 µM, first compound 3 µM): 65.1%
- viability, T/C (second compound 0.1 µM, first compound 0.00949 µM): 88.4%
- viability, T/C (second compound 0.1 µM, first compound 0.03 µM): 87.3%
- viability, T/C (second compound 0.1 µM, first compound 0.0949 µM): 84.2%
- viability, T/C (second compound 0.1 µM, first compound 0.3 µM): 80.5%
- viability, T/C (second compound 0.1 µM, first compound 0.949 µM): 81.6%
- viability, T/C (second compound 0.1 µM, first compound 3 µM): 55.9%
- viability, T/C (second compound 0.316 µM, first compound 0.00949 µM): 80.9%
- viability, T/C (second compound 0.316 µM, first compound 0.03 µM): 81%
- viability, T/C (second compound 0.316 µM, first compound 0.0949 µM): 67.1%
- viability, T/C (second compound 0.316 µM, first compound 0.3 µM): 68%
- viability, T/C (second compound 0.316 µM, first compound 0.949 µM): 63.4%
- viability, T/C (second compound 0.316 µM, first compound 3 µM): 45.4%
- viability, T/C (second compound 1 µM, first compound 0.00949 µM): 72.2%
- viability, T/C (second compound 1 µM, first compound 0.03 µM): 57.1%
- viability, T/C (second compound 1 µM, first compound 0.0949 µM): 55.4%
- viability, T/C (second compound 1 µM, first compound 0.3 µM): 52.8%
- viability, T/C (second compound 1 µM, first compound 0.949 µM): 40.8%
- viability, T/C (second compound 1 µM, first compound 3 µM): 24.7%
